# Results as given in patent publication US6977272B2, “Method for antagonizing inhibition effects of alcohol on cell adhesion” (President and Fellows of Harvard College, priority 2002, dated 2005).
# Values joined by “and” are separate entries in the source; they are usually repeats but may differ in a detail not shown here. Equal values may be shown once. Read-outs that look alike come from different tables or passages of the source.
# Experiments:
# [1] = system: NIH/3T3 cells transfected with an empty vector (Vec-1A5); test: Aggregation assay on NIH/3T3 cells transfected with an empty vector (non-L1 component of cell adhesion); type: cell-based, murine; settings: four independent assays, each compound at the concentration given in the source, control 15±1
# Description: (§1) NIH/3T3 cells were cultured at 37° C. in Dulbecco's […] Eagle medium (DMEM) (Invitrogen, Carlsbad, Calif.) supplemented with 10% normal calf serum (Intergen, Purchase, N.Y.) and 400 μg/ml G418 (Life Technologies), in an atmosphere of 90% air and 10% CO2. Three subclones were utilized in these studies: 2B2-L1, 2A2-L1 and Vec-1A5.
# (§2) Cells were detached by gentle agitation in calcium-free and magnesium-free PBS supplemented with 0.1 mg/ml. DNase, mechanically dissociated to obtain a single-cell suspension, and diluted to 350,000 cells/ml. One ml of the cell suspension was added per well (4.5 cm^2) to a 12-well plate. Agonists and test antagonists were added simultaneously, plates were sealed with parafilm to prevent evaporation, and the cells were gently shaken for 30 minutes at room temperature or on ice. Cells were viewed at a final magnification of 200× and each well was scored for single and adherent cells in five to six microscopic fields of view. Approximately 100 cells per field of view and 600 cells per well were counted. The percent of adherent cells was calculated for each microscopic field of view and then averaged for each well.
# Each candidate antagonist was tested at a single aqueous concentration that was calculated to produce a molar membrane concentration equivalent to that produced by a buffer solution of 100 mM ethanol (ECEQ).
# [2] = obtained from a published source or calculated from published octanol/water partition coefficients (divided by five); cited from earlier work
# [3] = molecular target: T1, L1-mediated cell-cell adhesion in human L1-transfected NIH/3T3 cells (2B2-L1, 2A2-L1) (Homo sapiens, UniProt P32004); test: Cell aggregation (cell-cell adhesion) assay in ethanol-sensitive, human L1-transfected NIH/3T3 cells; type: cell-based; set-up: antagonist at the aqueous concentration (μM); Antagonist Activity Butanol % ± SEM; 1-alc; effect of increasing concentrations of 1-butanol on the antagonist activity (in words): dose or concentration left out as unconfirmed; settings: for IC50: read-out: IC50 concentration (antagonist, used in FIG. 5A); for agonist or antagonist activity (in words): at the ECEQ and at 10 times the ECEQ; for effect of increasing concentrations of 1-butanol on the antagonist activity (in words): 2 to […] mM 1-butanol, single antagonist concentration (FIG. 5A, 5B); for antagonist effect at higher concentrations (in words): 2 μM to 10 μM; for antagonist activity against ethanol (in words): test concentrations of FIG. 3 / Table 1
# Description: as §1
# Cell adhesion assays were performed in the absence and presence of the compounds, listed below in Table 1. […] The aqueous concentration of each antagonist was calculated to produce membrane concentrations equivalent to 100 mM ethanol. Membrane/buffer partition coefficients (Pm/b) were obtained or calculated from published octanol/water partition coefficients.
# as §2
# Agonists and antagonists were initially tested at aqueous concentrations that were calculated to produce molar membrane concentrations (˜10 mM) equivalent to those produced by an aqueous concentration of 100 mM ethanol (ECEQ).
# L1-mediated cell-cell adhesion was defined as the difference in percent of adherent cells between an L1-transfected cell line (2B2-L1 or 2A2-L1) and a vector-transfected cell line (Vec-1A5).
# Agonists include compounds that inhibit L1-mediated cell-cell adhesion.
# [4] = molecular target: T1, L1-mediated cell-cell adhesion in human L1-transfected NIH/3T3 cells (2B2-L1, 2A2-L1); set-up: antagonist at the aqueous concentration (μM); Antagonist Activity Butanol % ± SEM; 1-alc; settings: 3-buten-1-ol alone (Wilkemeyer et al., 2000); cited from earlier work
# [5] = Membrane/buffer partition coefficient (Pm/b); type: physicochemical; settings: from Pm/b of Table 1
# Description: Cell adhesion assays were performed in the absence and presence of the compounds, listed below in Table 1. […] Membrane/buffer partition coefficients (Pm/b) were obtained or calculated from published octanol/water partition coefficients. The compounds are sorted by decreasing membrane/buffer partition coefficients.
# Calculations were based on membrane-buffer partition coefficients (Pm/b), which were obtained from a published source (McCreery and Hunt, 1978) or were derived by dividing the octanol/water partition coefficient by five.
# [6] = EC50 membrane (based on calculated membrane concentrations, expressed relative to 1-pentanol), against 100 mM ethanol, calculated from the Pm/b (FIG. 3)
# [7] = approximate EC50 (against 2 mM 1-butanol), antagonist concentration used in FIG. 5B
# [8] = against 2 mM butanol, linear regression of concentration-response curves (FIG. 4), read-out: aqueous concentration that produced half maximal effect (antagonism)
# [9] = against 2 mM butanol, not adjusted for membrane concentration
# T1 sequence (P32004 whole entry): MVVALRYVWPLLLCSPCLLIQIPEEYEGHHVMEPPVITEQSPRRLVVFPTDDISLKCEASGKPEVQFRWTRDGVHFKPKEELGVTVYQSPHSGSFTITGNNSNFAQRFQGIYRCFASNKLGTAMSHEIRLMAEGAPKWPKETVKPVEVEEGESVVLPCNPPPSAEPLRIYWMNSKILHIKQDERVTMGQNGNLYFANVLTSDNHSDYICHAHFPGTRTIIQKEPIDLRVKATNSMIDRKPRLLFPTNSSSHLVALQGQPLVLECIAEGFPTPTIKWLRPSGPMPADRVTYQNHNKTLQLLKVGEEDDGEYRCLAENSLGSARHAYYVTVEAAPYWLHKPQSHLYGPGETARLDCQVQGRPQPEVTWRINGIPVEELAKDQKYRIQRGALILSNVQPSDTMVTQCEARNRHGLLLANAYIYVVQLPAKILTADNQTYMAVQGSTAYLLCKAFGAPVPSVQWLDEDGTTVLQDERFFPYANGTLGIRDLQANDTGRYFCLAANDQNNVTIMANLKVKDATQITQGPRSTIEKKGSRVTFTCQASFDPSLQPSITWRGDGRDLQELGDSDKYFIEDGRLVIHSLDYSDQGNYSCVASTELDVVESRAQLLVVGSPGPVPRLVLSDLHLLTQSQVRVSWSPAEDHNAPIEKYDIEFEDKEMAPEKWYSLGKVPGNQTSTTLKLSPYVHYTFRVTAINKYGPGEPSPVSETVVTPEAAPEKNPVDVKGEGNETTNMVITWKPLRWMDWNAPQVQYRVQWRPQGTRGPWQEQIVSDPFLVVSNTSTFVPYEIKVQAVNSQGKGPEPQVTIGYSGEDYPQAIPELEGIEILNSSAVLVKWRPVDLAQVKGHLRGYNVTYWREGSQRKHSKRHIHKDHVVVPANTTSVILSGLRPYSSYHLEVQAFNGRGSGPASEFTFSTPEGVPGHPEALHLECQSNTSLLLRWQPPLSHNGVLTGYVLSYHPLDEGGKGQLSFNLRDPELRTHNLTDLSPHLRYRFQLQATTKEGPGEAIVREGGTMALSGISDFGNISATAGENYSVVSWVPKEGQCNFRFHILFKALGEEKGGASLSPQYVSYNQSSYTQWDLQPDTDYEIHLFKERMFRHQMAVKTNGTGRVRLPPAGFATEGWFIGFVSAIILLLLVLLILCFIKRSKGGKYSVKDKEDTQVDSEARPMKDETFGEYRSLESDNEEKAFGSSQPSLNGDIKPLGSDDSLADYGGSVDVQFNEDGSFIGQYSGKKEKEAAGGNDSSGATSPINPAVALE
compound,measurement,setting,value
C=CCCO [3-buten-1-ol],mean±S.E.M. percent cell adhesion,[1],14±0%
same,P(m/b) membrane/buffer partition coefficient,[2],1
same,IC50,[3]; antagonism of 1-butanol inhibition of cell-cell adhesion,3 mM
same,EC50,"[3]; read-out: approximate EC50 (against 2 mM 1-butanol), antagonist concentration used in FIG. 5B",~3000 µM
same,"effect on L1-mediated cell-cell adhesion, compound alone (in words)",[4],no effect
"C[S+](C)[O-] [dimethyl sulfoxide, reference compound]",mean±S.E.M. percent cell adhesion,[1],13±0%
same,P(m/b) membrane/buffer partition coefficient,[2],0.012
same,inhibition of L1-mediated cell adhesion (in words),[3]; 120 mM (1%) DMSO,did not inhibit
same,agonist or antagonist activity (in words),[3],neither agonists nor antagonists
CCCCCCCCCCCO [1-undecanol],P(m/b) membrane/buffer partition coefficient,[2],3810
same,EC50,[3],0.03 µM
same,EC50,[3]; [6],20 µM
"CC(C)c1cccc(C(C)C)c1O [2,6-di-isopropyl phenol, 2,6-di-isopropylphenol, reference compound]",P(m/b) membrane/buffer partition coefficient,[2],1233
CCCCCCCCCCCCCO [1-tridecanol],P(m/b) membrane/buffer partition coefficient,[2],36394
same,EC50,[3],0.25 µM
same,EC50,[3]; [6],1620 µM
same,fold less potent antagonist than C12 (1-dodecanol),[3]; against 100 mM ethanol (FIG. 3),approximately 25 fold
CCCCCCCCO [1-octanol],mean±S.E.M. percent cell adhesion,[1],12±1%
same,lipid solubility relative to 1-pentanol,[5],thirty-seven-fold more lipid soluble
same,P(m/b) membrane/buffer partition coefficient,[2],189
same,EC50,[3],3 µM
same,EC50,[3]; [6],98 µM
same,antagonist potency relative to 1-pentanol,"[3]; FIG. 3 and Wilkemeyer et al., 2000",two hundred-fold more potent
same,EC50,[3]; [7],~5 µM
same,IC50,[3],0.005 mM
CCCC(C)(C)O [2-methyl-2-pentanol],P(m/b) membrane/buffer partition coefficient,[2],5.2
same,effect of increasing concentrations of 1-butanol on the antagonist activity (in words),[3],did not eliminate the antagonist activity
CCC(C)O (stereo not shown) [2-butanol],antagonist activity (in words),[3]; 11 mM (ECEQ) 2-butanol,no antagonist activity
same,percent inhibition of L1-mediated cell-cell adhesion,"[3]; 11 mM (ECEQ) 2-butanol alone, n=6",63±9%
CC=CCO [2-buten-1-ol],percent inhibition of cell adhesion,"[3]; 15 mM 2-buten-1-ol alone, n=10",34±4%
same,percent inhibition of cell adhesion,"[3]; 15 mM 2-buten-1-ol plus 2 mM 1-butanol, n=11",35+6%
same,antagonism of the actions of 1-butanol and ethanol (in words),[3]; 15 mM (ECEQ) 2-buten-1-ol,partially antagonized
same,inhibition of L1-mediated cell-cell adhesion (in words),[3]; 15 mM (ECEQ) 2-buten-1-ol,partially inhibited
same,antagonism of the actions of 1-butanol or ethanol (in words),[3]; 150 mM 2-buten-1-ol,neither antagonized nor augmented
same,inhibition of L1-mediated cell-cell adhesion (in words),[3]; 150 mM 2-buten-1-ol,maximally inhibited
CCCCCCCCCCCCO [1-dodecanol],P(m/b) membrane/buffer partition coefficient,[2],26979
same,EC50,[3]; [6],140 µM and 28 µM
CCC(O)CC [3-pentanol],P(m/b) membrane/buffer partition coefficient,[2],4.69
same,effect of increasing concentrations of 1-butanol on the antagonist activity (in words),[3],eliminated the antagonist activity
OC1CCCC1 [cyclopentanol],P(m/b) membrane/buffer partition coefficient,[2],2.24
same,effect of increasing concentrations of 1-butanol on the antagonist activity (in words),[3],eliminated the antagonist activity
OCc1ccccc1 [benzyl alcohol],P(m/b) membrane/buffer partition coefficient,[2],2.52
same,effect of increasing concentrations of 1-butanol on the antagonist activity (in words),[3],eliminated the antagonist activity
1-butanol [reference compound],mean±S.E.M. percent cell adhesion,[1],13±2%
same,percent of the maximal agonist response,[3]; 2 mM 1-butanol (FIG. 5A),approximately 90%
same,mean percent inhibition of cell adhesion,"[3]; 2 mM 1-butanol alone, n=11",60±5%
CCCCCCCO [1-heptanol],P(m/b) membrane/buffer partition coefficient,[2],51.4
CCCCCCO [1-hexanol],EC50,[3]; [8],80 µM
CCCCCCCCCCCCCCCO [1-pentadecanol],P(m/b) membrane/buffer partition coefficient,[2],347560
same,antagonist effect at higher concentrations (in words),[3],inactive
same,antagonist activity against ethanol (in words),[3]; against 100 mM ethanol,completely inactive
same,antagonist activity against ethanol (in words),"[3]; against 100 mM ethanol, listed as 1-Pentadecanol",no antagonist activity
same,agonist or antagonist activity (in words),[3],neither agonists nor antagonists
CCCC(C)O (stereo not shown) [2-pentanol],P(m/b) membrane/buffer partition coefficient,[2],4.38
same,effect of increasing concentrations of 1-butanol on the antagonist activity (in words),[3],did not eliminate the antagonist activity
CCCCCCCCCCCCCCO [1-tetradecanol],P(m/b) membrane/buffer partition coefficient,[2],112468
same,antagonist effect at higher concentrations (in words),[3],inactive
same,antagonist activity against ethanol (in words),[3]; against 100 mM ethanol,only minimal antagonist activity
same,agonist or antagonist activity (in words),[3],neither agonists nor antagonists
"CCO [ethanol, reference compound]",inhibition at 100000 µM,"[3]; NIH3T3, read-out: percent inhibition of L1-mediated cell-cell adhesion",62 ± 7%
CCCCCO [1-pentanol],mean±S.E.M. percent cell adhesion,[1],16±2%
same,P(m/b) membrane/buffer partition coefficient,[2],5.02
same,EC50,[3],540 µM
same,effect of increasing concentrations of 1-butanol on the antagonist activity (in words),[3],did not eliminate the antagonist activity
same,EC50,[3]; [6],540 µM
same,EC50,[3]; [8],223 µM
same,EC50,[3]; [7],~700 µM
CC(C)CCCO [4-methyl-1-pentanol],mean±S.E.M. percent cell adhesion,[1],15±3%
same,P(m/b) membrane/buffer partition coefficient,[2],9.36
same,effect of increasing concentrations of 1-butanol on the antagonist activity (in words),[3],did not eliminate the antagonist activity
same,EC50,[3]; [8],32 µM
same,ratio of half-maximal aqueous concentrations versus 1-hexanol,[3]; [9],approximately 2.5 times
same,ratio of half-maximal aqueous concentrations versus 1-pentanol,[3]; [9],approximately 7 fold
same,EC50,[3]; [7],~40 µM
CC(O)C1CC1 (stereo not shown) [cyclopropylethanol],P(m/b) membrane/buffer partition coefficient,[2],0.83
same,agonist or antagonist activity (in words),[3],neither agonists nor antagonists
